# Measured values published in patent US7713948B2, “Use of 5-substituted nucleosides for reinforcing the apoptotic effect of cytostatic drugs” (Resprotect GmbH, priority 2003, dated 2010).
# “Also recorded” adds a separate entry of the source.
# Legend:
# AH13r sarcoma cells = assay: AH13r cell number under increasing doses of cytostatic with or without BVDU, followed by recovery phase; type: cell-based, rat; conditions: for cell number: cytostatic + BVDU after three treatment cycles, in comparison to cytostatic alone
# Source text: This effect was established by means of a screening system according to the invention. This screening method is based on the treatment of tumour cells during a chemotherapy cycle over a period of preferably eight to thirty days with increasing doses of a cytostatic and a constant dose of the overexpression inhibitor. After this combination treatment, the cytostatic is discontinued and the treatment is continued solely with the overexpression inhibitor. This recovery phase (also called recovery phase) lasts preferably between 3 and 10 days. Chemotherapy cycles of this type can be implemented successively up to 6 times.
# AH13r cells were subjected to increasing doses of the cytostatic mitomycin C (MMC). […] This inhibitory effect was maintained even after discontinuation of the cytostatic in the next cycle, in the so-called recovery phase. The cells without MMC and BVDU continued to grow without inhibition.
# AH13r tumour cells = assay: Hoechst 33258/propidium iodide (Hopi) double colouration for apoptosis; type: cell-based; conditions: HOPI double colouration of AH13r tumour cells of the rat
# JUN-D = assay: Western Blot analysis of survival pathways, JUN-D; type: cell-based
# Source text: (§1) We tested different “survival pathways” by means of Western Blot analysis. The analyses were implemented according to standard methods, as is described in Sambrook et al., 2001, Molecular Cloning (3rd ed.). Antibody dilutions: P-STAT3 (cell signalling) 1:500, JUN-D (Santa Cruz, Calif.) 1:1,000.
# (§2) The densitometrically determined content of oncogene proteins JUN-D and STAT3 was reduced by a quarter or two thirds after DOX treatment in the recovery phase (r=recovery phase). In the “recovery” only BVDU is given, no cytostatic.
# STAT3 = assay: Western Blot analysis of survival pathways, STAT3; type: cell-based; conditions: after DOX treatment, recovery phase (only BVDU given, no cytostatic)
# Source text: as §1, §2
# [1] = tested on: UBIQUITIN-CONJUGATING ENZYME E2N; UBE2N; assay: Two-dimensional gel electrophoresis, UBE2N; type: cell-based; conditions: co-treatment of MMC with BVDU
# Source text: (§3) Listing of the proteins influenced by the treatment with base analogues and mitomycin C. The results of the implementation of a two-dimensional gel electrophoresis are compiled in the following Table 2.
# [2] = tested on: APURINIC ENDONUCLEASE; APE; APE1; APEX; assay: Two-dimensional gel electrophoresis, APEX; type: cell-based; conditions: co-treatment of MMC with BVDU
# Source text: as §3
# [3] = tested on: dimethybenzanthracene (DMBA) induced tumours; assay: DMBA-induced tumours in SD rats, tumour size; type: in vivo; conditions: DOX 1 mg/kg
# Procedure: (§4) The reduction in toxic side effects of doxorubicin (DOX) was able to be shown in the test with rats (see Table 1). SD rats were treated with dimethybenzanthracene (DMBA). […] During the treatment and one day after each treatment, i.e. in the recovery phase, the animals obtained respectively 15 mg/kg BVDU.
# [4] = DMBA tumour test in SD rats, animal weight (toxic side effects); type: in vivo
# Procedure: DT-D inactivates ROS and thus protects cells from non-specific ROS and electrophilic attacks. […] DOX treatment alone leads to weight losses because of the toxic side effects. It is certain that only the side effects (possibly the cardiotoxicity characteristic of DOX) are reduced by BVDU but not the toxic effects on the tumour.
# as §4
compound,measurement,setting,value
"O=c1[nH]c(=O)n([C@H]2C[C@H](O)[C@@H](CO)O2)cc1/C=C/Br [BVDU, (E)-5-(2-bromovinyl)-2′-deoxyuridine]",cell growth in the recovery phase,"AH13r sarcoma cells; after discontinuation of the cytostatic, BVDU continued alone",greatly inhibited in their growth
same,toxic effect on cells,AH13r sarcoma cells; given alone,no toxic effect
same,apoptosis,AH13r tumour cells,promotes apoptosis
same,inhibition of MMC induced JUN-D overexpression,JUN-D; BVDU given in the recovery after MMC,complete inhibition
same,reduction of densitometrically determined content of JUN-D,"JUN-D; after DOX treatment, recovery phase (only BVDU given, no cytostatic)",approximately one quarter; also recorded: a quarter
same,reduction of densitometrically determined content of STAT3,STAT3,approximately two thirds
same,reduction of overexpression of UBE2N,[1],approximately one third
same,reduction of overexpression of APEX,[2],approximately one third
"COc1cccc2c1C(=O)c1c(O)c3c(c(O)c1C2=O)C[C@@](O)(C(=O)CO)C[C@@H]3O[C@H]1C[C@H](N)[C@H](O)[C@H](C)O1 [DOX, doxorubicin]",cell number,AH13r sarcoma cells,Corresponding results
same,apoptosis,AH13r tumour cells,initiate apoptosis
same,Relative tumour size Day 1,"[3]; DMBA-induced tumours, BVDU 15 mg/kg, average of 5-8 rats, Day 1",1
same,Relative tumour size Day 16,"[3]; DMBA-induced tumours, BVDU 15 mg/kg, average of 5-8 rats, Day 16",1.5
same,growth of DMBA-induced tumours,[3],inhibited in their growth
same,Relative animal weight Day 1,"[4]; SD rats, DMBA-induced tumours, DOX 1 mg/kg, BVDU 15 mg/kg, average of 5-8 rats, Day 1",0
same,Relative animal weight Day 16,"[4]; SD rats, DMBA-induced tumours, DOX 1 mg/kg, BVDU 15 mg/kg, average of 5-8 rats, Day 16",−7%
same,animal weight change (toxic side effects),"[4]; rat, in vivo",weight losses
"CO[C@@]12[C@H](COC(N)=O)C3=C(C(=O)C(C)=C(N)C3=O)N1C[C@@H]1N[C@@H]12 [MMC, mitomycin C]",apoptosis,AH13r tumour cells,initiate apoptosis
"CN(Cc1cnc2nc(N)nc(N)c2n1)c1ccc(C(=O)N[C@@H](CCC(=O)O)C(=O)O)cc1 [MTX, methotrexate]",cell number,AH13r sarcoma cells,Corresponding results
"O=C1c2c(O)ccc(O)c2C(=O)c2c(NCCNCCO)ccc(NCCNCCO)c21 [MXA, mitoxantrone]",cell number,AH13r sarcoma cells,Corresponding results
same,apoptosis,AH13r tumour cells,initiate apoptosis
